The results in this text go back to ChEMBL document CHEMBL1152277, “Lead optimization of 4-acetylamino-2-(3,5-dimethylpyrazol-1-yl)-6-pyridylpyrimidines as A2A adenosine receptor antagonists for the treatment of Parkinson's disease” (J Med Chem, 2008).

Converted amounts (≈) assume the structure as drawn. The source made the active and inactive calls. No cut-off for these calls is given here. Where only a bound is given, the exact number is not on record here.

Broadly, the solubility is the dissolved amount per volume that the medium holds. Broadly, the Ki is the dissociation constant of the complex between target and ligand, obtained from inhibition or displacement. By pKa is commonly meant the negative logarithm of the acid dissociation constant. One may read the IC50 as the concentration that inhibits the measured activity by half. What is called CLint scaled is the capacity of the preparation to metabolise the compound, expressed as a volume cleared per time. As a reminder, the AUC(0-t) is exposure summed from dosing to a finite time, without extrapolation to infinity. By inhibition in vivo is commonly meant the relative decrease from the control value, in per cent.

The nature of series [1]: Aqueous solubility in phosphate-buffered saline at pH 7.4. It counts as physicochemical.
Series [2] is filed under the species Rattus norvegicus. The series can be described thus: Inhibition of haloperidol-induced catalepsy in rat assessed as minimal effective dose. As to conditions: read-out: MED. It counts as functional.
Series [3] addresses Voltage-gated inwardly rectifying potassium channel KCNH2 (Homo sapiens, UniProt Q12809). The series can be described thus: Inhibition of human ERG by electrophysiology assay.
Series [4] deals with T1, Cytochrome P450 3A4 (Homo sapiens, UniProt P08684). As to the kind of experiment: Inhibition of recombinant CYP3A4-catalyzed dealkylation of BFC assessed as formation of 7HFC by microplate fluorescence technique. It counts as ADME. The settings on record: recombinant enzyme.
T1 sequence (P08684 whole entry): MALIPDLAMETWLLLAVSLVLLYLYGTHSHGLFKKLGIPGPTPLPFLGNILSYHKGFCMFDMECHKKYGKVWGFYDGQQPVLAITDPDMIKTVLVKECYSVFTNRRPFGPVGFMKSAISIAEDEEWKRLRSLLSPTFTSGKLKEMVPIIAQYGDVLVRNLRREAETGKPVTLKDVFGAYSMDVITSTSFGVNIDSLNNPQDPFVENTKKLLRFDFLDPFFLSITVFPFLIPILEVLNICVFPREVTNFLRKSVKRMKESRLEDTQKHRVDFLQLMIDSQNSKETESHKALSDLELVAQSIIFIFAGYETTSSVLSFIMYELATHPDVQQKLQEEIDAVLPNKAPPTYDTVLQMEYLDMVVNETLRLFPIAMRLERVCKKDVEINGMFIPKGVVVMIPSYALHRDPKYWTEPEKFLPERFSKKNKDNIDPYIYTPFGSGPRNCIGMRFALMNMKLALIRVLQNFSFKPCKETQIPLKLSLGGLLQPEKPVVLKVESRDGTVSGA
The next series addresses T2, Adenosine receptor A1 (Homo sapiens, UniProt P30542).
T2 sequence (P30542 whole entry): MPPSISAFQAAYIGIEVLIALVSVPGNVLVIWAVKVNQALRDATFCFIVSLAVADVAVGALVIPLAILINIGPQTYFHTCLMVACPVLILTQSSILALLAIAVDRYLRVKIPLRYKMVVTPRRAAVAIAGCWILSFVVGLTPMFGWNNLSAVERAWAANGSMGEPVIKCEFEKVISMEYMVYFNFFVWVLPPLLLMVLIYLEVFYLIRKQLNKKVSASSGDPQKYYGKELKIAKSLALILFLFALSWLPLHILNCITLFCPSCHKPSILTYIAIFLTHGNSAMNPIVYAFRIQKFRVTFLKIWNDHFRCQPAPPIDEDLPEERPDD
The series can be described thus: Displacement of [3H]DPCPX from human adenosine A1 receptor expressed in HEK293 cells. It counts as cell-based.

A further series is filed under the species Homo sapiens. The series can be described thus: Selectivity ratio of Ki for human adenosine A1 receptor to Ki for human adenosine A2A receptor.
A short description of series [5]: Dissociation constant, pKa of the compound. It counts as physicochemical.
The target in series [6] is T1, Cytochrome P450 3A4.
Description: Inhibition of CYP3A4 in human liver microsomes by LC-MS/MS analysis
Series [7] can be described thus: Metabolic stability in rat liver microsomes assessed as intrinsic clearance by LC-MS/MS analysis. It counts as ADME, Microsome.
The target in series [8] is T3, Adenosine receptor A2a (Homo sapiens, UniProt P29274). As to the kind of experiment: Displacement of [3H][…] from human adenosine A2A receptor expressed in HEK293 cells. It counts as cell-based. Background: In a radioligand displacement assay an active substance lowers the binding of a labelled ligand.
T3 sequence (P29274 whole entry): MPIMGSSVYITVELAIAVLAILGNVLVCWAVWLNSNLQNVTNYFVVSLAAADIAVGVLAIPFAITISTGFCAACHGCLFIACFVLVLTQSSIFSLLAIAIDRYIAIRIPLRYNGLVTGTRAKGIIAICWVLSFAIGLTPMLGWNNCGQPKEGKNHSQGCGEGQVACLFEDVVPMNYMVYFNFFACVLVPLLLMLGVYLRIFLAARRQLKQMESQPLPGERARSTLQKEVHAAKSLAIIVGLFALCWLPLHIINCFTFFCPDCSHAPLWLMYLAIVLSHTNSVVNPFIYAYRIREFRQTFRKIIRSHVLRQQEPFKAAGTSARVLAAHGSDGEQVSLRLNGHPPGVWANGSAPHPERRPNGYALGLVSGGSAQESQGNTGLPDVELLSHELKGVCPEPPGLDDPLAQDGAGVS
Series [9] in a line: Metabolic stability in human liver microsomes assessed as intrinsic clearance by LC-MS/MS analysis. It counts as ADME, Microsome.
Series [10] can be described thus: Plasma concentration in rat at 10 mg/kg, po after 2 hrs. Also on record: dose 10 mg/kg, route oral. It counts as ADME, organism-based.
For series [11], the target named is Adenosine receptor A2a (Rattus norvegicus, UniProt P30543). The series can be described thus: Displacement of [3H][…] from rat adenosine A2A receptor expressed in CHO cells. It counts as cell-based.
Adenosine receptor A2a (Rattus norvegicus, UniProt P30543), sequence (P30543 whole entry): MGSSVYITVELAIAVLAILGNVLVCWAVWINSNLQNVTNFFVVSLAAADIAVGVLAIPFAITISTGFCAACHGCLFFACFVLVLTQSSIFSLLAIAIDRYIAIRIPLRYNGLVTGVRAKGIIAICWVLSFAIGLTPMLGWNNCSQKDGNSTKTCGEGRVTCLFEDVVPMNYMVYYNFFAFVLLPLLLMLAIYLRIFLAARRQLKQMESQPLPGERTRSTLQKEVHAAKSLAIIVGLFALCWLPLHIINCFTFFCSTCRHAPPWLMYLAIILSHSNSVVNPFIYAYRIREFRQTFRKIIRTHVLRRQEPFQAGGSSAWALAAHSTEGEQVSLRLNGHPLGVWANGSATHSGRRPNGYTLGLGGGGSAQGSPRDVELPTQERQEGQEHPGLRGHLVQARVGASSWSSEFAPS
Series [12] deals with T3, Adenosine receptor A2a. The series can be described thus: Antagonist activity at human adenosine A2A receptor expressed in CHO cells assessed as inhibition of CGS-21680-induced cAMP production. It counts as functional, cell-based. Background: Cyclic AMP is a second messenger, typically raised through Gs and lowered through Gi signalling.
In series [13] the test system is Rattus norvegicus. The series can be described thus: Inhibition of haloperidol-induced catalepsy in rat at 10 mg/kg, po after 2 hrs. It counts as functional. Also on record: scale not given: the % may be the effect or the level left.
Series [14] in a line: Drug concentration in rat brain at 10 mg/kg, po after 2 hrs. It counts as ADME, organism-based. Set-up: dose 10 mg/kg, route oral. The settings on record: read-out: Drug uptake.
A short description of series [15]: AUC (0 to 24 hrs) in rat plasma at 10 mg/kg, po. Also on record: time < 24 hr, dose 10 mg/kg, route oral. It counts as ADME, organism-based.
Series [16] deals with Rattus norvegicus. As to the kind of experiment: Inhibition of haloperidol-induced catalepsy in rat at 3 mg/kg, po. It counts as functional, organism-based. Set-up: dose 3 mg/kg.
Series [17] relates to Rattus norvegicus. As to the kind of experiment: Inhibition of haloperidol-induced catalepsy in rat at 1 mg/kg, po. It counts as functional, organism-based. Also on record: dose 1 mg/kg.
Series [18] is described as follows: Aqueous solubility at pH >= […]. It counts as physicochemical. The settings on record: buffer.
Series [19] can be described thus: Drug concentration in rat brain at 30 mg/kg, po after 2 hrs. It counts as ADME, organism-based. Also on record: dose 30 mg/kg, route oral. As to conditions: read-out: Drug uptake.
Series [20] relates to Rattus norvegicus. The series can be described thus: Inhibition of haloperidol-induced catalepsy in rat at 30 mg/kg, po after 2 hrs. It counts as functional.
Series [21] can be described thus: Plasma concentration in rat at 30 mg/kg, po after 2 hrs. It counts as ADME, organism-based. Also on record: dose 30 mg/kg, route oral.
A short description of series [22]: Permeability across MDCK cell membrane by cell-based MDR assay. It counts as ADME, Canis lupus familiaris. The settings on record: dog, MDCK-MDR1; read-out: permeability.
For series [23], the system named is Rattus norvegicus. The series can be described thus: Potentiation of L-dopa-induced rotational behavior in unilaterally 6-hydroxydopamine-lesioned po dosed Wistar rat pretreated 30 mins before L-dopa challenge measured over 5 hrs. It counts as functional, organism-based.
Series [24] is described as follows: Solubility at pH 3.7. It counts as physicochemical. The settings on record: buffer.
The nature of series [25]: AUC ((0 to 24 hrs)) in mouse at 300 mg/kg, po. The settings on record: plasma. Set-up: time < 24 hr, dose 300 mg/kg, route oral. It counts as ADME, organism-based.
Another series has as its system Liver microsomes. As to the kind of experiment: Induction of glutathione adducts formation in human liver microsomes. Set-up: species or system Microsome. In general terms: Liver microsomes are vesicles of endoplasmic reticulum, rich in cytochrome P450 enzymes.
For series [26], the system named is Rattus norvegicus. As to the kind of experiment: Potentiation of L-dopa-induced rotational behavior in unilaterally 6-hydroxydopamine-lesioned po dosed Wistar rat assessed as minimal effective dose pretreated 30 mins before L-dopa challenge measured over 5 hrs. It counts as functional. As to conditions: read-out: MED.
A short description of series [27]: AUC ((0 to 24 hrs)) in dog at 30 mg/kg, po. It counts as ADME, organism-based, Canis lupus familiaris. Set-up: time < 24 hr, dose 30 mg/kg, route oral. The settings on record: plasma.

Voltage-gated inwardly rectifying potassium channel KCNH2, sequence (Q12809 whole entry): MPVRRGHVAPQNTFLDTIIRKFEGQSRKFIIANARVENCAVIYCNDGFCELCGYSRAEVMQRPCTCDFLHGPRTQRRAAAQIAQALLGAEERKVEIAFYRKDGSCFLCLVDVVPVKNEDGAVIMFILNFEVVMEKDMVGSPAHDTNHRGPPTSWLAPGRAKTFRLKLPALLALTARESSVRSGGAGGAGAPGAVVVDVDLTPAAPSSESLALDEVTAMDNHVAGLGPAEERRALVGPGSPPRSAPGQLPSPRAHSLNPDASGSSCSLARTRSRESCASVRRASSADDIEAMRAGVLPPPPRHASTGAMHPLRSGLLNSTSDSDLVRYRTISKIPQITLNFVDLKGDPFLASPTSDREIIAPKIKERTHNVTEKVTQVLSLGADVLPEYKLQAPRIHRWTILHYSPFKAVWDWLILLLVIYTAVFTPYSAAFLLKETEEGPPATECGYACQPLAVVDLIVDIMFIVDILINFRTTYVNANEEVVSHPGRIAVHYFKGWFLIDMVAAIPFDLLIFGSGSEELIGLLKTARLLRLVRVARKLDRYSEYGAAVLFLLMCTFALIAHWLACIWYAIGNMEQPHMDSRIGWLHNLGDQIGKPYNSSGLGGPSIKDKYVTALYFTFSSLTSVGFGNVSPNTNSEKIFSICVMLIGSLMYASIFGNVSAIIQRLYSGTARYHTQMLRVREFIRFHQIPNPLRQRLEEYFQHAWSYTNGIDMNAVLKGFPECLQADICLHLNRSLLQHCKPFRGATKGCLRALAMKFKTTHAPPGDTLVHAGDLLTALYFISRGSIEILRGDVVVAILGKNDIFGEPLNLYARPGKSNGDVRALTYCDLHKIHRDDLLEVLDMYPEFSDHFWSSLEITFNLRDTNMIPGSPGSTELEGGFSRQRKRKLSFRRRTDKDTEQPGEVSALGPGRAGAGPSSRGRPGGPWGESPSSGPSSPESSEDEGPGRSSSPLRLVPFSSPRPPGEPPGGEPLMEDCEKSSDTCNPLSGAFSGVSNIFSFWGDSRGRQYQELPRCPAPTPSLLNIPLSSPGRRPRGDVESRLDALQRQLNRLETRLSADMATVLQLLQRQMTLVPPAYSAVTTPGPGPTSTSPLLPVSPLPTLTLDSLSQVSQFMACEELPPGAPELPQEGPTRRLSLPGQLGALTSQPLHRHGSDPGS

`CC(=O)Nc1cc(-c2cccc(N3CCOCC3)n2)nc(-n2nc(C)cc2C)n1` yielded a solubility in series [1] of 140 µg/mL (≈ 356 µM). Moreover, the minimal effective dose in the series filed under Rattus norvegicus [2] turned out to be 3 mg/kg. For the same compound, the Activity entry is given as “Not Active” in [3] (human), “Not Active” at Cytochrome P450 3A4 [4] and 55% in the series with Rattus norvegicus [13]. Moreover, the figures for the Ki at Adenosine receptor A1, on Adenosine receptor A2a [8] and on Adenosine receptor A2a [11] were 130 nM, 0.83 nM and 10 nM, respectively. Besides, the Ratio Ki in the series filed under Homo sapiens was 155. The compound also returned a pKa in [5] of 2.9. For the same compound, the IC50 on Cytochrome P450 3A4 [6] is over 20000 nM; on Adenosine receptor A2a [12] it was 13 nM. Moreover, the CLint scaled in series [7] is 25 mL/min/kg; in [9], 3 mL/min/kg. The concentration at 2 h in series [10] stood at 150 ng/mL; in series [14], 170 ng/g.
Turning to `COc1cncc(-c2cc(NC(C)=O)nc(-n3nc(C)cc3C)n2)c1`, in series [15], the AUC(0-t) at 24 h worked out at 1430 ng·h/mL. In addition, the outcome in the series on Rattus norvegicus [16] and in the series on Rattus norvegicus [17] was Active. For the same compound, the minimal effective dose in the series filed under Rattus norvegicus [2] came to 1 mg/kg. For the same compound, the IC50 stood at 24000 nM in [3], 18000 nM on Cytochrome P450 3A4 [6] and 57 nM at Adenosine receptor A2a [12]. For the same compound, the solubility in series [18] was under 10 µg/mL. The Ki at Adenosine receptor A1 worked out at 190 nM; on Adenosine receptor A2a [8], 2.3 nM; at Adenosine receptor A2a [11], 62 nM. Moreover, the Ratio Ki in the series filed under Homo sapiens turned out to be 82. In addition, the CLint scaled in series [7] was 120 mL/min/kg; in series [9] it was 35 mL/min/kg. In the series with Rattus norvegicus [13], this compound came in with an Activity of 64%.
As for `CC(=O)Nc1cc(-c2cccc(N3CCC(O)CC3)n2)nc(-n2nc(C)cc2C)n1`, the concentration at 2 h in [19] was 91 ng/g; in [21], 180 ng/mL; in [10], 16 ng/mL; in series [14] it was 9 ng/g. The compound further came in with a solubility in series [1] of 200 µg/mL (≈ 491 µM). In addition, the minimal effective dose in the series listed under Rattus norvegicus [2] is 30 mg/kg. Besides, the results for the inhibitory constant (Ki) on Adenosine receptor A1, at Adenosine receptor A2a [8] and on Adenosine receptor A2a [11] were 470 nM, 1.9 nM and 10 nM, respectively. For the same compound, the Ratio Ki in the series listed under Homo sapiens is 247. For the same compound, the values for the IC50 against Cytochrome P450 3A4 [6] and on Adenosine receptor A2a [12] were over 20000 nM and 22 nM, respectively. Besides, the CLint scaled is 230 mL/min/kg in series [7] and 43 mL/min/kg in series [9]. The inhibition in vivo at 30 mg/kg with Rattus norvegicus [20] turned out to be 90%.
As for `CC(=O)Nc1cc(-c2cccc(N3CCN(C)CC3)n2)nc(-n2nc(C)cc2C)n1`, the concentration in solution in series [1] (solubility) was 240 µg/mL (≈ 590 µM). Moreover, the half-inhibitory concentration (IC50) in [3] was 540 nM; at Cytochrome P450 3A4 [6], over 20000 nM; at Adenosine receptor A2a [12], 7 nM. In addition, in [22], the Papp came out at 15.4 ×10⁻⁶ cm/s. In addition, the results for the inhibition constant (Ki) at Adenosine receptor A1, at Adenosine receptor A2a [8] and on Adenosine receptor A2a [11] were 120 nM, 0.71 nM and 7 nM, respectively. In addition, the Ratio Ki in the series filed under Homo sapiens came out at 175. In addition, the pKa in series [5] amounted to 7.6. In addition, the CLint scaled was 25 mL/min/kg in [7] and 3 mL/min/kg in series [9]. Further, the result with Rattus norvegicus [20] was inactive. Moreover, the concentration at 2 h came to 53 ng/mL in [10] and 91 ng/g in series [14].
As to `COC1CCN(c2cccc(-c3cc(NC(C)=O)nc(-n4nc(C)cc4C)n3)n2)CC1`, the Activity entry in the series with Rattus norvegicus [23] is “Dose-dependent effect”; in the series with Liver microsomes it was “Not Active”; in the series with Rattus norvegicus [13], 88%. Further, the minimal effective dose was 1 mg/kg in the series filed under Rattus norvegicus [2] and 3 mg/kg in the series with Rattus norvegicus [26]. In addition, in the series with Rattus norvegicus [17], the outcome was Active. Also, the solubility in series [24] was found to be 1000 µg/mL (≈ 2370 µM). Moreover, the values for the area under the curve AUC(0-t) at 24 h in series [25] and in series [27] were 25700 ng·h/mL and 3400 ng·h/mL, respectively. Further, the Ki came out at 85 nM on Adenosine receptor A1 and 0.44 nM at Adenosine receptor A2a [8]. The intrinsic metabolic clearance (CLint scaled) in series [7] worked out at 540 mL/min/kg; in series [9], 41 mL/min/kg.
